{"source": "patent US20260185056A1", "about": "“TRIPLE TISSUE CULTURE FUSION” (IMBA - INSTITUT FÜR MOLEKULARE BIOTECHNOLOGIE GMBH, priority 2022, published 2026)", "format_in_all_cases": "cell-based, human", "key": {"[1]": {"tested_on": "ventral midbrain organoids", "experiment": "CHIR dose curve (Wnt activation) for midbrain induction in ventral midbrain organoids (qPCR OTX2, FOXA2, TH)", "protocol": "FIG. 2A-D: qPCR analysis of markers of ventral midbrain of the dose curving experiment to generate ventral midbrain organoids. Two separate dose curving experiments were performed, where first the correct dosage of sonic hedgehog activation was tested (FIG. 2A, floor plate marker FOXA2). Secondly, we performed qPCR to test for appropriate concentrations of posteriorization using Wnt activation. Dopaminergic neurons are born in the very ventral floor plate of the posterior midbrain, next to the midbrain-hindbrain boundary, thus the Forebrain and Midbrain marker OTX2 should still be expressed, whereas the hindbrain is OTX2 negative. We found a concentration of 0.8-1 μM sufficient to introduce midbrain (FIG. 2B), while the floor plate marker FOXA2 was still expressed (FIG. 2C). qPCR for the dopaminergic marker TH (Tyrosine hydroxylase, the rate-limiting enzyme for dopamine synthesis) confirmed this concentration of Wnt activation, with a sharp drop of TH expression starting at 1.2 μM CHIR (FIG. 2D).\nAll qPCR data are relative to the expression of TBP.\nFor each condition, 6-8 organoids were collected at indicated time points into 2 ml RNAse-free tubes. RNA was extracted using the Rneasy mini kit (Qiagen). […]\nQuantification was performed in excel by calculating ΔCt relative to TBP. […]"}, "[2]": {"tested_on": "dopaminergic (TH+) axons in striatal and cortical tissue of fused organoids", "experiment": "Chronic cocaine treatment of fused organoids: TH+ varicosity density and diameter", "settings": "for density of TH+ varicosities on axons / diameter of TH+ varicosities: chronic 0.7 μM, vs control; for density of TH+ varicosities on axons: 1 h every 3 days, day 40-130; for diameter of TH+ varicosities: day 130", "protocol": "A, Schematic for the treatment of fused organoids with cocaine. […] Functional, morphological and transcriptional analysis was performed on day 130. B, Representative images of dopaminergic (TH^+) axons in striatal and cortical tissue in control, chronic and withdrawal fused organoids. C, Schematic for the extraction of varicosity density and varicosity diameter in dopaminergic axons. D, Quantifications of TH^+ varicosity density in striatal and cortical tissue. N=6-8 organoids per condition, 39-49 axons. E, Measurement of varicosity diameter (axon average) in striatal and cortical tissue. N=6-8 organoids, 36-47 axons per condition and 1055|1552|1347 (striatal) and 923|1063|1340 (cortical) boutons measured. F, Schematic of the parameters' frequency and duration from GCAMP traces after extraction with CaImAn. G-H, fused organoids with GCAMP6S expression in either VM, striatal or cortical tissue were recorded on day 130 in control, chronic and withdrawal conditions (10-21 organoids per condition). […] 1776|2144|4254 individual calcium events (striatal) and 1437|6931|8000 individual calcium events (cortical). H, Analysis of calcium event frequency of striatal (n=248|245|680) and cortical (175|936|885) neurons in control, chronic and withdrawal conditions. I-J, Volcano plot comparing bulk RNAseq data of day 130 forebrain organoids chronic versus control (I) and withdrawal versus control (J) (n=6-9 organoids of 2-3 batches). […] Samples were analyzed with one-way ANOVA followed by unpaired Mann-Whitney test.\n2Eci tissue clearing was performed as previously described (Masselink & Reumann, et al., Development 146, 2019). In brief, organoids were fixed with 4% formaldehyde in PBS for 4 h at RT. For 3D immunohistochemistry, PBS-TxDB was prepared: 10×PBS, 5% BSA and 2% TX100 were pre-mixed and filled up with distilled water to achieve approx. 70% of aimed volume (e.g. for 11 of PBS-TxDB, 100 ml of 10×PBS, 50 g BSA and 20 ml TX100 were used and filled up to 700 ml with distilled water. 20% DMSO was then added slowly under heavy stirring-rapid addition of DMSO may result in irreversible BSA aggregation. The solution was filled up to 100% with distilled water and sterile filtered. PBS-TxDB is stable at RT for at least several weeks, or at 4° C. for up to a year.\nOrganoids were blotted/permeabilized on a rotor or shaking plate for 1-2 days in 10 ml PBS-TxDB at RT. Organoids (dependent on the size, between 3 and 6) were then transferred into 2 ml Eppendorf tubes containing primary antibody solution in PBS-TxDB (between 500 μl to 1 ml) and transferred to a rotor or shaking plate for 5 days. Organoids were then washed in 10 ml PBS-TxDB for 2 days (1× rinse, 3×PBS-TxDB exchange) and the same steps were repeated for secondaries. After washing off the residual secondaries, organoids were washed in PBS for 1 h and then fixed in 4% Formaldehyde solution for 30 min-2 h. Organoids were then ready to be dehydrated in a 1-Propanol gradient (30%, 50%, 70%, 100%, 100%, 4-8 h per step). As no endogenous fluorescence had to be maintained, pH adjustment of the 1-Propanol was skipped. After dehydration, organoids were transferred into Ethyl Cinnamate and were ready for imaging as soon as completely transparent (1-3 h or overnight at RT). Cleared organoids were stored at room temperature and should not be transferred to 4° C., as Ethyl Cinnamate crystallizes out at lower temperatures. […]"}, "[3]": {"tested_on": "forebrain and VM tissue of fused organoids", "experiment": "Chronic cocaine treatment of fused organoids: bulk RNAseq", "settings": "for transcriptional change (bulk RNAseq): day 130", "protocol": "(§1) A, Schematic for the treatment of fused organoids with cocaine. […] Functional, morphological and transcriptional analysis was performed on day 130. B, Representative images of dopaminergic (TH^+) axons in striatal and cortical tissue in control, chronic and withdrawal fused organoids. C, Schematic for the extraction of varicosity density and varicosity diameter in dopaminergic axons. D, Quantifications of TH^+ varicosity density in striatal and cortical tissue. N=6-8 organoids per condition, 39-49 axons. E, Measurement of varicosity diameter (axon average) in striatal and cortical tissue. N=6-8 organoids, 36-47 axons per condition and 1055|1552|1347 (striatal) and 923|1063|1340 (cortical) boutons measured. F, Schematic of the parameters' frequency and duration from GCAMP traces after extraction with CaImAn. G-H, fused organoids with GCAMP6S expression in either VM, striatal or cortical tissue were recorded on day 130 in control, chronic and withdrawal conditions (10-21 organoids per condition). […] H, Analysis of calcium event frequency of striatal (n=248|245|680) and cortical (175|936|885) neurons in control, chronic and withdrawal conditions. I-J, Volcano plot comparing bulk RNAseq data of day 130 forebrain organoids chronic versus control (I) and withdrawal versus control (J) (n=6-9 organoids of 2-3 batches). […] Samples were analyzed with one-way ANOVA followed by unpaired Mann-Whitney test.\n(§2) A, Representative 130 day old GCAMP recordings of fused organoids with Syn-GCAMP expression either in the cortical, or striatal, or VM tissue in control (left), chronic (middle) and withdrawal (right) condition. […] D, Analysis of calcium event frequency of VM (n=100|278|115) neurons in control, chronic and withdrawal conditions. […] Samples were analyzed with one-way ANOVA followed by unpaired Mann-Whitney test (C, D). E-F, Volcano plots of differentially expressed genes in VM tissue in chronic versus control I and withdrawal versus control (F). G-I, GSEA analysis of three GO terms associated with neural circuit formation (Dendrite Development, Axon Development and Synapse Organization) in forebrain chronic vs control (top) and forebrain withdrawal versus control (bottom).\n(§3) Here, we used the neural multi-tissue organoids to test the effects of cocaine on the establishment of the dopaminergic system. Cocaine is a dopamine reuptake inhibitor, which binds to the dopamine transporter (DAT) and inhibits the reuptake of dopamine after release and thus increases the available levels of dopamine to target cells. While the effects of cocaine on the adult brain are relatively well understood, not much is known about the effects of cocaine on the development of the CNS-predominantly because of the lack of an effective model system. We tested the effects of chronic cocaine exposure and its potential effect on the establishment of the dopaminergic system. […] We chronically treated fused organoids with cocaine from day 40 until day 130 and generated a withdrawal condition which was not exposed to cocaine from day 105 onwards (FIG. 17A)."}, "[4]": {"tested_on": "VM, striatal and cortical neurons of fused organoids", "experiment": "Chronic cocaine treatment of fused organoids: GCAMP6S calcium imaging", "settings": "for calcium event frequency: VM, striatal and cortical patterned neurons", "protocol": "as §1, §2\nOrganoids were grown until […]. GCAMP was recorded using an Olympus Spinning Disk (see Microscopy section). In brief, 20× magnification and an exposure time of 65 ms per frame (continuous recording) were used for up to 6.5 min of continuous recording. For trace extraction, recordings were scaled down from 2048×2048 to 512×512 pixels. Trace extraction was performed using the opensource software package CaImAn (Flatiron Institute).\nas §3\nIn vivo, cocaine exposure has been associated with changes in neural activity."}}, "note": "Where “and” joins values, the source holds several entries; their conditions need not be identical. Equal values may be shown once. Where a name gives a salt, the structure may show the parent alone."}
{"smiles": "Cc1cnc(-c2cnc(NCCNc3ccc(C#N)cn3)nc2-c2ccc(Cl)cc2Cl)[nH]1", "note": "[CHIR, 6-[[2-[[4-(2,4-dichlorophenyl)-5-(5-methyl-1H-imidazol-2-yl)-2-pyrimidinyl]amino]ethyl]amino]-3-pyridinecarbonitrile]", "values": [{"measurement": "concentration sufficient for midbrain induction", "setting": "[1]; OTX2, FOXA2 and TH still expressed (qPCR)", "value": "0.8 to 1 µM and 1 µM"}, {"measurement": "concentration at which sharp drop of TH expression starts", "setting": "[1]; qPCR, relative to TBP", "value": "≥ 1.2", "unit": "µM"}]}
{"smiles": "COC(=O)[C@H]1[C@@H](OC(=O)c2ccccc2)C[C@@H]2CC[C@H]1N2C", "note": "[cocaine hydrochloride]", "values": [{"measurement": "diameter of TH+ varicosities, rescue by withdrawal", "setting": "[2]; 25-day long withdrawal, striatal and cortical tissue", "value": "failed to rescue"}, {"measurement": "density of TH+ varicosities on axons", "setting": "[2]; cortical tissue", "value": "significantly increased"}, {"measurement": "diameter of TH+ varicosities", "setting": "[2]; cortical tissue", "value": "significantly reduced"}, {"measurement": "density of TH+ varicosities on axons", "setting": "[2]; striatal tissue", "value": "significantly increased"}, {"measurement": "diameter of TH+ varicosities", "setting": "[2]; striatal tissue", "value": "significantly reduced"}, {"measurement": "transcriptional change (bulk RNAseq)", "setting": "[3]; VM tissue, chronic and withdrawal vs control", "value": "only little transcriptional change"}, {"measurement": "genes associated with interferon response (such as IFITM2 and IFITM3)", "setting": "[3]; forebrain, chronic and withdrawal conditions", "value": "upregulated"}, {"measurement": "transcriptional change (bulk RNAseq)", "setting": "[3]; forebrain, chronic and withdrawal conditions vs control", "value": "a broad list of genes was differentially expressed"}, {"measurement": "genes associated with neural circuit formation (GO term analysis)", "setting": "[3]; forebrain, chronic and withdrawal vs control", "value": "downregulation"}, {"measurement": "GSEA of GO terms dendrite development, axon development and synapse organization", "setting": "[3]; forebrain, chronic exposure and withdrawal vs control", "value": "consistently and significantly downregulated"}, {"measurement": "calcium event duration", "setting": "[4]; VM neurons, chronic condition, day 130", "value": "decrease"}, {"measurement": "calcium event duration", "setting": "[4]; VM neurons, cocaine withdrawal", "value": "without recovery"}, {"measurement": "calcium event frequency", "setting": "[4]; cocaine treated vs control", "value": "fewer events per minute"}, {"measurement": "calcium event frequency", "setting": "[4]; withdrawal condition", "value": "only partially recover"}, {"measurement": "calcium event duration", "setting": "[4]; cortical patterned neurons, chronic condition, day 130, vs control, hydrochloride", "value": "increase"}, {"measurement": "calcium event duration", "setting": "[4]; cortical patterned neurons, chronic condition, day 130, vs control, listed as cocaine, hydrochloride", "value": "significant increase"}, {"measurement": "calcium event duration", "setting": "[4]; striatal neurons, chronic condition, day 130, vs control, hydrochloride", "value": "significant decrease"}, {"measurement": "calcium event duration", "setting": "[4]; striatal neurons, chronic condition, day 130, vs control, listed as cocaine, hydrochloride", "value": "significantly shorter"}, {"measurement": "calcium event duration", "setting": "[4]; withdrawal condition, striatal and cortical neurons", "value": "not significantly different from the chronic condition"}]}
